Measurements from patent publication US5066585A, “Method of inhibiting fungus using novel antifungal compounds” (priority 1990, dated 1991).
In brackets after ≈: the same amount, converted by molar mass. Read-outs that look alike come from different tables or passages of the source.

Tests used:
murine tumors = settings: more active than adriamycin; cited from earlier work
Solubility = type: physicochemical
[1] = system: Candida albicans, Aspergillus fumigatus, and Cladosporium spp. fungi; test: TLC bioassay for the detection of the biological activity; type: cell-based; settings: bands at Rf 0.48 and 0.72, CHCl3-MeOH 16:1
Protocol: The crude extract obtained from the mycelium was spotted on a TLC plate (5×20, […]) and developed (CHCl3 -MeOH, 16:1 v/v). The plate was then marked under UV and visible light for individual spots or regions. The spores of the agar slant culture of the test organism was suspended in 10 ml of sterile physiological saline. The growth medium containing agar was then shaken well with 50 ul of the above suspension (35-40° C.) and poured over the developed TLC plate uniformly and allowed to set. The plates were then placed in a moist chamber and incubated at 26° C. for 24 to 72 hours and the zone of inhibition was recorded for the respective spots of the plate. The test organisms were Candida albicans, Aspergillus fumigatus, and Cladosporium spp. fungi and the growth medium was potato dextrose agar (PDA, 39 g/l).

[2] = system: Cryptococcus neoformans-N-2; test: MIC against Cryptococcus neoformans-N-2, broth dilution; type: cell-based; settings: N = encapsulated, mucoid strain with neurotropic tendencies, ca 10,000 CFU
Protocol: (§1) Known amounts of the purified substance were dissolved in DMSO and serial dilutions prepared in the same solvent. A 20 ul volume of each dilution was placed on the surface of Emmon's agar in petri-dishes seeded with various test strains of pathogenic and saprophytic fungi. The antibacterial activity was monitored using Muller-Hilton agar. The minimum inhibitory concentration (MIC) was determined by incorporating known amount of the DMSO dissolved purified substance into Emmon's liquid medium (same as stated earlier but devoid of agar) contained in test tubes. The tubes were inoculated with ca 2×10^3 CFU of the test organisms. The inoculated tubes were incubated at 26° C. and the results recorded after two to 5 days' depending upon the growth pattern of the test organisms (certain fungi grow faster than others). Tubes inoculated in an identical manner but devoid of the active substance served as controls.
(§2) Minimum inhibitory concentration of Spartanamycin-B against certain bacteria and fungi. (The substance was dissolved in DMSO, 20 ul of the solution was mixed with two ml of liquid Emmons medium containing ca 10,000 Colony forming Units of fungal test strains or 100,000 CFU's of bacterial test strains).

Citrobacter species = test: MIC against Citrobacter species; type: cell-based; settings: bacterial strain, 100,000 CFU
Protocol: as §1, §2

Cladosporium species = test: MIC against Cladosporium species, broth dilution; type: cell-based; settings: fungus, ca 10,000 CFU, liquid Emmons medium, DMSO solution
Protocol: as §1, §2

Rhodotorula rubra = test: MIC against Rhodotorula rubra, broth dilution; type: cell-based; settings: fungus, ca 10,000 CFU, liquid Emmons medium
Protocol: as §1, §2

C. quilliermondii = test: MIC against C. quilliermondii, broth dilution; type: cell-based; settings: fungus, ca 10,000 CFU, liquid Emmons medium, DMSO solution
Protocol: as §1, §2

C. neoformans-N-3 = test: MIC against C. neoformans-N-3, broth dilution; type: cell-based; settings: N = encapsulated, mucoid strain with neurotropic tendencies, ca 10,000 CFU
Protocol: as §1, §2

Pseudomonas aeruginosa = test: MIC against Pseudomonas aeruginosa; type: cell-based; settings: bacterial strain, 100,000 CFU
Protocol: as §1, §2

A. flavus = test: MIC against A. flavus, broth dilution; type: cell-based; settings: fungus, ca 10,000 CFU, liquid Emmons medium, DMSO solution
Protocol: as §1, §2

Candida albicans = test: MIC against Candida albicans, broth dilution; type: cell-based; settings: fungus, ca 10,000 CFU, liquid Emmons medium, DMSO solution
Protocol: as §1, §2

[3] = stability on standing in 2N HCl; type: physicochemical; settings: upon standing in 2N HCl
Plebsiella pneumoniae = test: MIC against Plebsiella pneumoniae; type: cell-based; settings: bacterial strain, 100,000 CFU
Protocol: as §1, §2

C. neoformans-G-3 = test: MIC against C. neoformans-G-3, broth dilution; type: cell-based; settings: G = nonencapsulated, drypasty, highly virulent strain, ca 10,000 CFU
Protocol: as §1, §2

Aspergillus fumigatus = test: MIC against Aspergillus fumigatus, broth dilution; type: cell-based; settings: fungus, ca 10,000 CFU, liquid Emmons medium, DMSO solution
Protocol: as §1, §2

[4] = system: Staphylococcus aureus ATCC 29213; test: MIC against Staphylococcus aureus ATCC 29213; type: cell-based; settings: bacterial strain, 100,000 CFU
Protocol: as §1, §2

S. aureus ATCC 25923 = test: MIC against S. aureus ATCC 25923; type: cell-based; settings: bacterial strain, 100,000 CFU
Protocol: as §1, §2

C. neoformans serotype-C = test: MIC against C. neoformans serotype-C, broth dilution; type: cell-based; settings: ca 10,000 CFU, liquid Emmons medium
Protocol: as §1, §2

Penicillium species = test: MIC against Penicillium species, broth dilution; type: cell-based; settings: fungus, ca 10,000 CFU, liquid Emmons medium, DMSO solution
Protocol: as §1, §2

Escherichia coli = test: MIC against Escherichia coli; type: cell-based; settings: bacterial strain, 100,000 CFU
Protocol: as §1, §2

C. neoformans serotype-D = test: MIC against C. neoformans serotype-D, broth dilution; type: cell-based; settings: ca 10,000 CFU, liquid Emmons medium
Protocol: as §1, §2

A. niger = test: MIC against A. niger, broth dilution; type: cell-based; settings: fungus, ca 10,000 CFU, liquid Emmons medium, DMSO solution
Protocol: as §1, §2

R. glutinis = test: MIC against R. glutinis, broth dilution; type: cell-based; settings: fungus, ca 10,000 CFU, liquid Emmons medium
Protocol: as §1, §2

[5] = system: S. aureus (multiple drug resistant); test: MIC against S. aureus (multiple drug resistant); type: cell-based; settings: bacterial strain, 100,000 CFU
Protocol: as §1, §2

[6] = comparison compounds; cited from earlier work
fungi = settings: comparison compounds from Streptomyces; cited from earlier work
[7] = hexane, cyclohexane, water and 2N HCl

## CCN[C@H]1CO[C@@H](O[C@H]2[C@H](O[C@H]3C#C/C=C\C#C[C@]4(O)CC(=O)C(NC(=O)OC)=C3/C4=C\CSSSC)O[C@H](C)[C@@H](NO[C@H]3C[C@H](O)[C@H](SC(=O)c4c(C)c(I)c(O[C@@H]5O[C@@H](C)[C@H](O)[C@@H](OC)[C@H]5O)c(OC)c4OC)[C@@H](C)O3)[C@@H]2O)C[C@@H]1OC [Calicheamicin]
Murine tumors
  activity relative to adriamycin against murine tumors: approximately 1000 fold

## CCC1(O)CC(OC2CC(N(C)C)C(OC3CC4OC5CC(=O)C(C)OC5OC4C(C)O3)C(C)O2)c2c(cc3c(c2O)C(=O)c2c(O)ccc(O)c2C3=O)C1C(=O)OC (stereo not shown) [Spartanamicin A]
Solubility; 1-butanol, ethanol, methanol
  Solubility: Sparingly soluble
Solubility; chloroform, carbon tetrachloride, toluene, ethyl acetate, DMF, DMSO, acetonitrile, acetone and glacial acetic acid
  Solubility: Soluble
Solubility; [7]
  Solubility: Insoluble
Solubility
  solubility in methanol and ethanol: not soluble
[1]
  biological activity of TLC band: biologically active

## CC[C@@]1(O)C[C@H](O[C@H]2C[C@H](N(C)C)[C@H](O[C@H]3C[C@H](O)[C@H](O[C@H]4CCC(=O)[C@H](C)O4)[C@H](C)O3)[C@H](C)O2)c2c(cc3c(c2O)C(=O)c2c(O)ccc(O)c2C3=O)[C@H]1C(=O)OC [Spartanamicin B]
[2]
  MIC: 0.8 µg/mL (≈ 0.966 µM)
Citrobacter species
  MIC: not active
Solubility; 1-butanol, ethanol, methanol, acetonitrile
  Solubility: Sparingly soluble
Solubility; chloroform, carbon tetrachloride, toluene, ethyl acetate, DMF, DMSO, acetone and glacial acetic acid
  Solubility: Soluble
Solubility; [7]
  Solubility: Insoluble
Solubility
  solubility in methanol and ethanol: not soluble
Cladosporium species
  MIC: 0.4 µg/mL (≈ 0.483 µM)
Rhodotorula rubra
  MIC: 0.8 µg/mL (≈ 0.966 µM)
C. quilliermondii
  MIC: 0.8 µg/mL (≈ 0.966 µM)
C. neoformans-N-3
  MIC: 0.6 µg/mL (≈ 0.725 µM)
Pseudomonas aeruginosa
  MIC: 100 µg/mL (≈ 121 µM)
A. flavus
  MIC: 0.6 µg/mL (≈ 0.725 µM)
Candida albicans
  MIC: 0.2 µg/mL (≈ 0.242 µM)
[3]
  stability in 2N HCl: hydrolyses
Plebsiella pneumoniae
  MIC: 100 µg/mL (≈ 121 µM)
C. neoformans-G-3
  MIC: 1.0 µg/mL (≈ 1.21 µM)
Aspergillus fumigatus
  MIC: 0.4 µg/mL (≈ 0.483 µM)
[4]
  MIC: 0.8 µg/mL (≈ 0.966 µM)
S. aureus ATCC 25923
  MIC: 0.8 µg/mL (≈ 0.966 µM)
C. neoformans serotype-C
  MIC: 0.8 µg/mL (≈ 0.966 µM)
Penicillium species
  MIC: 0.2 µg/mL (≈ 0.242 µM)
Escherichia coli
  MIC: not active
C. neoformans serotype-D
  MIC: 0.8 µg/mL (≈ 0.966 µM)
[1]
  biological activity of TLC band: biologically active
A. niger
  MIC: 0.6 µg/mL (≈ 0.725 µM)
R. glutinis
  MIC: 0.4 µg/mL (≈ 0.483 µM)
[5]
  MIC: not active

## CCC1(O)CC(OC2CC(N(C)C)C(OC3CC(O)C(OC4CCC(=O)C(C)O4)C(C)O3)C(C)O2)c2c(cc3c(c2O)C(=O)c2c(O)ccc(O)c2C3=O)C1C(=O)OC (stereo not shown) [cinerubin A]
[6]
  solubility in methanol and ethanol: soluble
fungi
  antifungal properties: not significantly antifungal

## CCC1(O)CC(OC2CC(N(C)C)C(OC3CC4OC5CC(=O)C(C)OC5OC4C(C)O3)C(C)O2)c2c(cc3c(c2O)C(=O)c2c(O)ccc(O)c2C3=O)C1C(=O)OC (stereo not shown) [cinerubin B]
[6]
  solubility in methanol and ethanol: soluble
fungi
  antifungal properties: not significantly antifungal
